Patent US20170056380A1, “Systems, Methods, Techniques, and Compounds in Research and Treatment of Portal Hypertension and other Conditions” (priority 2014, published 2017)

Biological target: T1, eNOS cytochrome c reductase activity (Rattus norvegicus, UniProt Q62600)
T1 construct: endogenous in cells; host or cells: primary liver sinusoidal endothelial cells from male Sprague-Dawley rats (normal or bile-duct-ligated)
T1 sequence (Q62600 1-1202): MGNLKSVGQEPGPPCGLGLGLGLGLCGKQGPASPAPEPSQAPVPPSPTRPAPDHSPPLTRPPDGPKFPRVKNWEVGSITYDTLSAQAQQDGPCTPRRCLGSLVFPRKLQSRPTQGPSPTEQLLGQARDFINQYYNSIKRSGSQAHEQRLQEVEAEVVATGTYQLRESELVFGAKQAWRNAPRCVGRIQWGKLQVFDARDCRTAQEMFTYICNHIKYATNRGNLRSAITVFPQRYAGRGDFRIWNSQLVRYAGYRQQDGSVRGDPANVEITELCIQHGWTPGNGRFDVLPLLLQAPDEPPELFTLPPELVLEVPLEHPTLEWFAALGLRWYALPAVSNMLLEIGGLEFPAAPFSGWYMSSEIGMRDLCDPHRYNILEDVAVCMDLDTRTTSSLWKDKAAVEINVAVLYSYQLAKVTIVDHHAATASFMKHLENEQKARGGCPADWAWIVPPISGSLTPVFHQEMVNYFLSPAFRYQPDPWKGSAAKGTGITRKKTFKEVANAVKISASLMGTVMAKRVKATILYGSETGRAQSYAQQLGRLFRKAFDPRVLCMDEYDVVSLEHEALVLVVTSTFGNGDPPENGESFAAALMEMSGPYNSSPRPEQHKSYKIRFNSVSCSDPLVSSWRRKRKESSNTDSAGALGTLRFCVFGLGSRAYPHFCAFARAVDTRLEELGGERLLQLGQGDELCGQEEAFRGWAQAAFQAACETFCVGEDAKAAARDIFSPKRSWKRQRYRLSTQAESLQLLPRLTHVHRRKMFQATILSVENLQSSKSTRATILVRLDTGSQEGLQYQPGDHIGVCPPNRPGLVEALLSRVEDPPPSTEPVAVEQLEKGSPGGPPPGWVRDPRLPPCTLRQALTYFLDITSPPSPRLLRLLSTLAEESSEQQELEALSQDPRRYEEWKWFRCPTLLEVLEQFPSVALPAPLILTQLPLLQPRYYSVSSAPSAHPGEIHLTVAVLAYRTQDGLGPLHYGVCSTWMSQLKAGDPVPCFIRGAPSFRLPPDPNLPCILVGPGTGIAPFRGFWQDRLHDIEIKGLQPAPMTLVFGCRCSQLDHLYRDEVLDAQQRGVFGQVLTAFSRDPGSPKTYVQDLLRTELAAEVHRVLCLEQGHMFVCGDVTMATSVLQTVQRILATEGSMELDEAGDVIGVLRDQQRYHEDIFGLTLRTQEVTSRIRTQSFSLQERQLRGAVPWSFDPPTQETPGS
Test: NADPH-dependent cytochrome c reductase assay in sinusoidal endothelial cell lysates
Assay type: cell-based
Method: Cell isolation and culture. Sinusoidal endothelial cells were isolated from male Sprague-Dawley rats (450-500 g) (Harlan, Indianapolis, Ind.). In brief, after in situ perfusion of the liver with 20 mg/100 mg pronase (Roche Molecular Biochemicals, Indianapolis, Ind.), followed by collagenase (Worthington Biochemical, Lakewood, N.J.), dispersed cell suspensions were removed from a layered discontinuous density gradient of 8.2 and 15.6% Accudenz (Accurate Chemical and Scientific, Westbury, N.Y.), further purified by centrifugal elutriation (18 ml/min flow), and were grown in medium containing 20% serum (10% horse/calf). The purity of endothelial cells was documented by their uptake of fluorescently labeled di-l-acetoacetylated low-density lipoprotein as described (21). Only primary sinusoidal endothelial isolates of >95% purity were used for study. Experiments were performed with cells frorrr a minimum three different isolations (for all experiments).
NOS activity assay. NOS activity from sinusoidal endothelial cell lysates was assessed by measuring the conversion of L-[3H]arginine to L-[3H]citrulline as described (6) per the manufacturer's instructions (Cayman Chemical). […] Radiolabeled counts per minute of generated L-citrulline were measured and used to determine L-NAME-inhibitable NOS activity (thus, each experiment included total counts and background counts). […] The reductase activities of sinusoidal endothelial cells with or without cicletanine exposure were determined using the NADPH-dependent cytochrome c assay. […] The reduction of cytochrome c was monitored at 550 nm at 25° C. […] Turnover number was calculated using the absorbance change during this 30-s interval and an extinction coefficient of 0.021/μM.

rate of cytochrome c reduction compared with no cicletanine treatment (CaM stimulation): twofold more
rate of cytochrome c reduction compared with no cicletanine treatment (basal level): twofold more
cytochrome c reductase activity (cicletanine 100 nM, 2 h): significant increase
Compound: Cc1ncc2c(c1O)COC2c1ccc(Cl)cc1 (stereo not drawn) [cicletanine, 3-(4-chlorophenyl)-1,3-dihydro-7-hydroxy-6-methylfuro-(3,4-c) pyridine]
